Laboratory results from PubChem BioAssay (NCI).
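Assay format: 96-well plates, 48-hour exposure. Definition used: TGI = concentration required for complete inhibition of growth.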

Legend:
Assay in all cases: NCI anticancer screen, dose series, 48 h
UO-31 renal = system: UO-31 renal
SN12C renal = system: SN12C renal
HCC-2998 colon = system: HCC-2998 colon
HL-60(TB) leukemia = system: HL-60(TB) leukemia
K-562 leukemia = system: K-562 leukemia
MDA-N = system: MDA-N
OVCAR-8 ovarian = system: OVCAR-8 ovarian
HOP-62 NSCLC = system: HOP-62 NSCLC
OVCAR-3 ovarian = system: OVCAR-3 ovarian
BT-549 breast = system: BT-549 breast
SK-MEL-2 melanoma = system: SK-MEL-2 melanoma
SK-MEL-28 melanoma = system: SK-MEL-28 melanoma
OVCAR-4 ovarian = system: OVCAR-4 ovarian
KM12 colon = system: KM12 colon
NCI/ADR-RES ovarian = system: NCI/ADR-RES ovarian
HCT-15 colon = system: HCT-15 colon
OVCAR-5 ovarian = system: OVCAR-5 ovarian
NCI-H460 lung = system: NCI-H460 lung
MOLT-4 leukemia = system: MOLT-4 leukemia
SK-OV-3 ovarian = system: SK-OV-3 ovarian

Structure (SMILES) | TGI (UO-31 renal) [µM] | TGI (SN12C renal) [µM] | TGI (HCC-2998 colon) [µM] | TGI (HL-60(TB) leukemia) [µM] | TGI (K-562 leukemia) [µM] | TGI (MDA-N) [µM] | TGI (OVCAR-8 ovarian) [µM] | TGI (HOP-62 NSCLC) [µM] | TGI (OVCAR-3 ovarian) [µM] | TGI (BT-549 breast) [µM] | TGI (SK-MEL-2 melanoma) [µM] | TGI (SK-MEL-28 melanoma) [µM] | TGI (OVCAR-4 ovarian) [µM] | TGI (KM12 colon) [µM] | TGI (NCI/ADR-RES ovarian) [µM] | TGI (HCT-15 colon) [µM] | TGI (OVCAR-5 ovarian) [µM] | TGI (NCI-H460 lung) [µM] | TGI (MOLT-4 leukemia) [µM] | TGI (SK-OV-3 ovarian) [µM]
O=C(C=P(c1ccccc1)(c1ccccc1)c1ccccc1)C12CC3CC(CC(C3)C1)C2 | 27.7 | 32.3 | 32.1 | 27.1 | 25.2 | 29.2 | 34.5 | 32.3 | 28.5 | 33.8 | 29.5 | 31.8 | 52.9 | 32 | 37.6 | 26.7 | 32.7 | 31.3 | – | –
CCCCCCCCCCCCNC(=O)NCC(OCC)OCC | – | > 10 | > 10 | – | > 10 | > 10 | > 10 | > 10 | – | > 10 | > 10 | > 10 | > 10 | > 10 | – | > 10 | > 10 | > 10 | > 10 | > 10
Cc1cc(-c2ccc(C(=O)C(Cl)(Cl)Cl)[nH]2)on1 | 56.7 | 43.2 | – | 64.6 | > 100 | > 100 | > 100 | 24.8 | 90.1 | 98.1 | 66.7 | > 100 | 70.1 | 24.6 | 94.3 | > 100 | 73 | 21.8 | > 100 | > 100
Cc1ncc([N+](=O)[O-])n1CCN(C)CCCCn1ccnc1[N+](=O)[O-] | > 100 | > 100 | > 100 | > 100 | > 100 | > 100 | > 100 | > 100 | > 100 | > 100 | > 100 | > 100 | > 100 | > 100 | – | > 100 | > 100 | > 100 | > 100 | > 100
NCCC1(N)CCNCC1 | > 100 | > 100 | – | > 100 | > 100 | > 100 | > 100 | – | – | > 100 | > 100 | > 100 | > 100 | > 100 | > 100 | > 100 | > 100 | > 100 | > 100 | > 100
CCOC(=O)C1NCCc2c1[nH]c1ccccc21 (stereo not given) | – | > 10 | > 10 | > 10 | > 10 | > 10 | > 10 | > 10 | > 10 | > 10 | – | > 10 | > 10 | > 10 | – | > 10 | – | – | > 10 | > 10
C1=C2SSC3=CC=C(SSc4ccc(s4)SSC4=CC=C(SSC(=C1)S2)S4)S3 | > 100 | > 100 | > 100 | – | > 100 | > 100 | > 100 | > 100 | > 100 | > 100 | > 100 | > 100 | > 100 | > 100 | > 100 | > 100 | > 100 | > 100 | > 100 | > 100
COC(=O)C(=O)C(C(=O)C(=O)Nc1ccccc1C(=O)OC)c1nc2ccc(C(=O)c3ccccc3)cc2[nH]c1=O (stereo not given) | > 100 | > 100 | – | > 100 | > 100 | > 100 | > 100 | > 100 | > 100 | > 100 | > 100 | > 100 | 88.8 | > 100 | > 100 | > 100 | > 100 | > 100 | – | > 100
Oc1c(OCc2nnc(CCCCCCCCc3nnc(COc4ccc5ccccc5c4O)n3Nc3ccccc3)n2Nc2ccccc2)ccc2ccccc12 | 19.6 | 29.2 | 21.8 | – | > 100 | 12.8 | 28.3 | 3.77 | 30.6 | 25.7 | 27.6 | 14.3 | 20.7 | 19 | 42.6 | 30 | 28.5 | 20.5 | > 100 | 27.3
O=S(=O)(O)c1cc(Cl)c(O)c2ncc(Cl)cc12 | > 100 | > 100 | > 100 | – | > 100 | > 100 | > 100 | > 100 | > 100 | > 100 | > 100 | > 100 | > 100 | > 100 | > 100 | > 100 | > 100 | > 100 | 66.4 | –
COc1ccc(-c2nc3ncccn3c2-c2ccc(S(C)=O)cc2)cc1 (stereo not given) | > 100 | > 100 | – | > 100 | > 100 | > 100 | > 100 | > 100 | > 100 | > 100 | > 100 | > 100 | > 100 | > 100 | > 100 | > 100 | > 100 | > 100 | > 100 | > 100
COc1c2nc(CCl)n(C)c(=O)c2c(OC)c2c(=O)n(C)c(CCl)nc12 | 2.49 | 3.56 | 2.65 | 2.47 | 7.83 | 3.31 | 13.2 | 5.7 | 5.68 | 1.96 | – | 3.94 | > 100 | 2.46 | 6.88 | 2.86 | 7.75 | 4.66 | 1.54 | –
